{"source": "ChEMBL document CHEMBL1125783", "about": "“Novel 1-phenylcycloalkanecarboxylic acid derivatives as potential anticonvulsant agents” (1991)", "note": "Where “and” joins values, the source holds several entries; their conditions need not be identical. Equal values may be shown once. Calls of active or inactive are those of the source. The calls are words filed in the database; no cut-off is given here.", "data": [{"tested_on": "Rattus norvegicus", "assay": "Anticonvulsant activity in rats using MES (maximal electroshock) after subcutaneous administration; IA-Inactive up to dose of 50 mg/kg", "format": "functional, organism-based", "design": "dose 50 mg/kg", "details": "not given", "values": [{"smiles": "CCN(CC)CCOCCNCC1(c2ccccc2)CCCC1", "ED50": "inactive"}, {"smiles": "CCN(CC)CCOCCNC(=O)C1(c2ccccc2)CCCCC1", "ED50": "inactive"}, {"smiles": "CCN(CC)CCOCCNC(=O)C1(c2ccccc2)CCCC1", "ED50": "inactive"}, {"smiles": "CCN(CC)CCOCCNCC1(c2ccccc2)CCCCC1", "ED50": "inactive"}, {"smiles": "CCN(CC)CCOCCN(C)CC1(c2ccccc2)CCCC1", "ED50": "inactive"}]}, {"tested_on": "Rattus norvegicus", "assay": "Anticonvulsant activity in rats, using MES(maximal electroshock), after subcutaneous administration.", "format": "functional", "details": "sc", "units": {"ED50": "µmol/kg"}, "values": [{"smiles": "CCN(CC)CCOCCOCC1(c2ccccc2)CCCCC1", "ED50": 86}, {"smiles": "O=C1NC(=O)C(c2ccccc2)(c2ccccc2)N1", "note": "[PHENYTOIN]", "ED50": 30}]}, {"tested_on": "Rattus norvegicus", "assay": "Anticonvulsant activity in rats using MES (maximal electroshock) after subcutaneous administration", "format": "functional", "details": "sc", "values": [{"smiles": "CCN(CC)CCOCCOCC1(c2ccccc2)CCCCC1", "ED50": "37 mg/kg"}, {"smiles": "O=C1NC(=O)C(c2ccccc2)(c2ccccc2)N1", "note": "[PHENYTOIN]", "ED50": "8 mg/kg"}, {"smiles": "CCN(CC)CCOCCOCC1(c2ccccc2)CCCC1", "ED50": "7 mg/kg and 16 µmol/kg"}, {"smiles": "CCN(CC)CCOCCOC(=O)C1(c2ccccc2)CCCCC1", "ED50": "93 mg/kg and 173 µmol/kg"}, {"smiles": "CCN(CC)CCOCCOC(=O)C1(c2ccccc2)CCCC1", "note": "[CARBETAPENTANE]", "ED50": "25 mg/kg and 48 µmol/kg"}]}]}
